Entries after “also recorded” stand apart in the source; their conditions may differ.
What was measured:
[1] = test system: STAT5 transcriptional activity; test: Primary cell screening assay (CD69 expression, STAT5 transcriptional activity); type: cell-based; details: primary human CD4 T cells
Procedure: It was observed that the ability of different benzotriazole and benzotriazin derivatives to increase STAT5 phosphorylation correlated with the ability of the compounds to induce the expression of CD69 (a STAT5 target gene) (FIG. 2A) but not CD25 (FIG. 2B) in the surface of human CD4 T cells. Based on these findings, a primary cell screening assay was set up according to FIG. 2C to identify derivatives with similar activity. As an example, flow cytometry was performed to isolated activated cells (FIG. 2D), which were expanded in the presence of DMSO or a compound of interest (FIG. 2E), and screened for changes in the expression of CD69 (FIG. 2F).

[2] = test system: STAT1, STAT2, STAT3, STAT4, STAT5A, STAT5B, STAT6; test: Western blot of STAT phosphorylation in 293FT HEK cells transfected with V5-tagged STATs; type: cell-based; details: 24 hours, vs DMSO
Procedure: (§1) In general, samples are prepared and loaded on to a gel and during the electrophoresis the negatively charged proteins move toward the positively charged anode. In order to further analyze the proteins, they are transferred onto a membrane in a procedure called blotting. After the transfer, the membrane is blocked in order to prevent unwanted membrane-protein interaction in the following steps. To visualize the protein of interest the membrane is commonly first probed using a primary protein-specific antibody followed by a labeled secondary antibody used for detection. An image is taken of the membrane and the result is analyzed.

STAT1, STAT5, Mx1 = test: Western blot of primary CD4 T cells (pSTAT1, pSTAT5, Mx1); type: cell-based, human; details: increased concentrations
Procedure: as §1

CD4 T cells = test: Expansion of activated CD4 T cells with IL-2; type: cell-based, human; details: activated in vitro, IL-2, vs DMSO
CD8 T cells = test: Expansion of polyclonally activated CD8 T cells with IL-2; type: cell-based, human; details: IL-2, vs DMSO/untreated
Procedure: For these tests, human CD4 and CD8 T cells were activated in vitro and expanded with interleukin-2 (IL-2) in the presence of DMSO (control vehicle) or HODHBt. […] Some immunotherapy strategies rely on the in vitro expansion of the own patient CD4 and CD8 T cells specific against a tumoral or a viral antigen.
(§2) To address whether SUMOylation controls STAT activation in human CD8 T cells, polyclonally activated CD8 T cells were cultured with IL-2 in the presence or absence of HODHBt and levels of phosphorylated STATs were measured by Western blot. […] Proliferation of CD8 T cells is dependent on the activation and phosphorylation of STAT5.

[3] = test system: polyclonally activated CD4 T cells (TCM) killed by CD8 T cells
Text: An in vitro model to assess the cytolytic potential of human polyclonally activated CD8 T cells was developed. This model relied on the concept of a mix-lymphocyte reaction (MLR) in which CD8 T cells recognize CD4 T cells from a different donor as foreign and induced their killing (FIG. 11A). In this model, polyclonally activated CD8 T cells were co-cultured with polyclonally activated CD4 T cells from a different donor at an effector:target ratio (E:T) of 1:1. Cell death in both CD4 and CD8 subsets was measured at different time points using a fixable viability dye.
To test this hypothesis, polyclonally activated CD8 T cells were co-cultured with polyclonally activated CD4 T cells from a different donor to resemble a mixed-lymphocyte reaction (MLR) at an effector:target ratio (E:T) 1:1 (FIG. 15A). CD4 T cells were activated in conditions that generate central memory CD4 T cells (TCM) cells. CD4 TCM are more resistant to apoptosis than other subsets of CD4 T cells. Cell death in both CD4 and CD8 subsets was measured at 72 hours using a fixable viability dye. Specifically, polyclonally activated CD4 T cells and CD8 T cells were co-cultured and cell death was measured at 72 hours. […] Using this assay, it was tested whether HODHBt increased the cytolytic capacity of CD8 T cells in two experimental set ups.

STAT5, STAT1, STAT3 = test: Western blot of phosphorylated STATs in CD8 T cells; type: cell-based, human
Procedure: as §2, §1

K562 = test: NK cell killing of K562 cells, E:T 1:1, 4 hours; type: cell-based, human
Procedure: It was therefore hypothesized that inhibiting STAT SUMOylation may enhance the ability of IL-15 stimulated NK cells to clear the HIV latent reservoir. To test the hypothesis, NK cells were treated with DMSO, IL-15-stimulated, treated with HODHBt or IL-15-stimulated and treated with HODHBt. Cells were then tested in their ability to kill the erythroleukemia cell line K562, which lack MHC-I. In an experiment, the NK cells from two donors were co-cultured with K562 at an E:T ratio of 1:1 for 4 hours (FIG. 19A). NK cells were pretreated with IL-15, HODHBt, or a combination of both.

STAT5 = details: Bosque et al., Cell Rep. 2017; cited from earlier work

## O=c1c2ccccc2nnn1O [HODHBt]
[1]
  STAT5 transcriptional activity relative to HODHBt: the compound with the strongest activity
[1]; read-out: EC50 in the primary cell screening method
  EC50: ~63 µM
[2]
  phosphorylation levels of STATs: increased phosphorylation levels of all the other STATs
STAT1, STAT5, Mx1
  levels of myxovirus resistance 1 (Mx1): increased the levels
  levels of phosphorylated STAT1 and STAT5: increased the levels of phosphorylated STAT1 and STAT5
CD4 T cells
  expansion of CD4 T cells: increased expansion
CD8 T cells
  expansion of CD8 T cells: increased expansion; also recorded: enhanced the expansion of polyclonally activated CD8 T in 5 human donors
[3]; CD8 T cells expanded in the presence of HODHBt
  killing capacity of CD8 T cells expanded in the presence of compound: higher killing capacity
[3]; HODHBt added during the MLR reaction, 72 hours
  killing capacity of CD8 T cells over TCM cells: increased the killing capacity of CD8 T cells over TCM cells in a dose dependent manner
[3]; human
  CD8 T cell death in co-culture: no increase in cell death in CD8 T cells in any of the experimental conditions
[3]; human, 72 h
  toxicity on CD8 T cells: no overt toxicity on CD8 T cells
[3]; time course, fixable viability dye
  CD4 T cell death in co-culture with CD8 T cells: detected only in the co-culture treated with HODHBt at 72 hours and 96 hours
STAT5, STAT1, STAT3; HODHBt alone
  phosphorylation of STAT1 and STAT3 in CD8 T cells: increased the phosphorylation levels of both STAT1 and STAT3
STAT5, STAT1, STAT3; after IL-2 treatment
  phosphorylation of STAT5 in CD8 T cells: increased the levels of phosphorylation of STAT5 after IL-2 treatment
STAT5, STAT1, STAT3; with IL-2, vs IL-2
  phosphorylation of STAT1 and STAT3 in CD8 T cells: enhanced those induced by IL-2
K562; NK cells expanded with IL-2 and HODHBt
  killing of K562 by NK cells expanded with compound: retained the ability to kill the target cell line K562
K562; NK cells pretreated with combination of IL-15 and HODHBt, E:T 1:1, 4 hours
  killing of K562 by pretreated NK cells: drastic increase in the cytolytic capacity of NK cells
STAT5
  phosphorylation and transcriptional activity of STAT5: enhance phosphorylation and the transcriptional activity of STAT5

From patent US12441693B2, “Targeting STAT sumoylation to enhance immune responses” (THE GEORGE WASHINGTON UNIVERSITY, priority 2018, dated 2025)
